What was measured:
[1] = target: T1, 5-hydroxytryptamine receptor 1A (Rattus norvegicus, UniProt P19327); experiment: biochemical
T1 sequence (P19327 whole entry): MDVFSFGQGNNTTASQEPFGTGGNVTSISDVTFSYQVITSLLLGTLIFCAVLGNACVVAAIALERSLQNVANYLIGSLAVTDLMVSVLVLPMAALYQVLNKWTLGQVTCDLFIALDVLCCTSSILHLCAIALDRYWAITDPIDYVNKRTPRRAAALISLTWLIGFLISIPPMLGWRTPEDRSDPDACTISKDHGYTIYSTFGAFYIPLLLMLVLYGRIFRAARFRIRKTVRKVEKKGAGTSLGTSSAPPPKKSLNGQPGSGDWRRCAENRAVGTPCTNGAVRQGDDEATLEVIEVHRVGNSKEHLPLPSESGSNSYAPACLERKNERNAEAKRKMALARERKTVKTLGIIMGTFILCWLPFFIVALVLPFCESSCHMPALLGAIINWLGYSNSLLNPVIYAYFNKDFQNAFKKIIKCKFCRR
Description: Displacement of [3H]8-OH-DPAT from 5HT1A receptor in rat cerebral cortex after 30 mins by liquid scintillation counting analysis

[2] = target: 5-hydroxytryptamine receptor 2A (Rattus norvegicus, UniProt P14842); experiment: Displacement of [3H]ketanserin from 5HT2A receptor in rat cerebral cortex after 15 mins by liquid scintillation counting analysis; assay type: tissue-based
Chain of 5-hydroxytryptamine receptor 2A (Rattus norvegicus, UniProt P14842) (P14842 whole entry): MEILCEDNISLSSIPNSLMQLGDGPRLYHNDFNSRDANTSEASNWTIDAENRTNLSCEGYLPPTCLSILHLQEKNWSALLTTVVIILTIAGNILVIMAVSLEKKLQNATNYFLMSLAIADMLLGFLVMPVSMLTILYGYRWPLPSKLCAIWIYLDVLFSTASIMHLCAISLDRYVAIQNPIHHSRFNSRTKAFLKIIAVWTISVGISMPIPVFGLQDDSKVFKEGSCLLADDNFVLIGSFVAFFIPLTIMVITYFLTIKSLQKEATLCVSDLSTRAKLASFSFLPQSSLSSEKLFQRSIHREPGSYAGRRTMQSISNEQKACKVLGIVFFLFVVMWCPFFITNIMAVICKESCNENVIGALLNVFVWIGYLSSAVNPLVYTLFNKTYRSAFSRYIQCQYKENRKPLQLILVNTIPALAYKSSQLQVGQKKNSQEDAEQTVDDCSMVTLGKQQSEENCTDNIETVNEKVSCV

D(2) dopamine receptor [3] = target: D(2) dopamine receptor (Rattus norvegicus, UniProt P61169)
Chain of D(2) dopamine receptor (Rattus norvegicus, UniProt P61169) (P61169 whole entry): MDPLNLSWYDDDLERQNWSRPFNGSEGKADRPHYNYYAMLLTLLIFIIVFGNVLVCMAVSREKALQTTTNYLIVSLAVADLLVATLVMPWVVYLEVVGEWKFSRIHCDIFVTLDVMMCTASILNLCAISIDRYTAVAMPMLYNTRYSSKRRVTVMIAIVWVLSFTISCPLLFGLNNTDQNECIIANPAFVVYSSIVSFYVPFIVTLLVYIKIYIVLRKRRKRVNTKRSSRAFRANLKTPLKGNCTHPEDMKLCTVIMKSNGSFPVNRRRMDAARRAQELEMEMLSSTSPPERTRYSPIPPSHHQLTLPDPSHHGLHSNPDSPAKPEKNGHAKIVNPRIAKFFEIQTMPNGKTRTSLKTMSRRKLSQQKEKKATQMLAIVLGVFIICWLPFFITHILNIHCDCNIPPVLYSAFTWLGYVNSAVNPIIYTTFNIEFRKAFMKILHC

[4] = target: T2, 5-hydroxytryptamine receptor 2A (Homo sapiens, UniProt P28223); experiment: Agonist activity at 5HT2A receptor (unknown origin) expressed in CHOK1 cells coexpressing Galpha15 at 10 uM by FLIPR assay relative to control; assay type: cell-based; settings: CHO-K1
T2 sequence (P28223 whole entry): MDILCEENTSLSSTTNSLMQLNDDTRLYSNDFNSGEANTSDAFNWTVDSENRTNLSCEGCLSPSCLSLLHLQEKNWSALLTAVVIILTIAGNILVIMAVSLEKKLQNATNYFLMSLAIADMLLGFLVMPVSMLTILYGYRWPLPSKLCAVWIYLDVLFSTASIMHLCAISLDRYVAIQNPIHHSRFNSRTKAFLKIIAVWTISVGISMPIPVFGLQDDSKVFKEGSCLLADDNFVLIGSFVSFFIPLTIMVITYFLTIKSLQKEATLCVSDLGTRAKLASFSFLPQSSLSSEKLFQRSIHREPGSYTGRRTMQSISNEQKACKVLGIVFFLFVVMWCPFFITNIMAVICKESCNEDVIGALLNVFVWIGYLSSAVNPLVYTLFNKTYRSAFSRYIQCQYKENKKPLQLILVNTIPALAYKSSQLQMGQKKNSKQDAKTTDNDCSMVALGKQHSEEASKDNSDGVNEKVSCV

D(2) dopamine receptor [5] = target: T3, D(2) dopamine receptor (Homo sapiens, UniProt P14416)
T3 sequence (P14416 whole entry): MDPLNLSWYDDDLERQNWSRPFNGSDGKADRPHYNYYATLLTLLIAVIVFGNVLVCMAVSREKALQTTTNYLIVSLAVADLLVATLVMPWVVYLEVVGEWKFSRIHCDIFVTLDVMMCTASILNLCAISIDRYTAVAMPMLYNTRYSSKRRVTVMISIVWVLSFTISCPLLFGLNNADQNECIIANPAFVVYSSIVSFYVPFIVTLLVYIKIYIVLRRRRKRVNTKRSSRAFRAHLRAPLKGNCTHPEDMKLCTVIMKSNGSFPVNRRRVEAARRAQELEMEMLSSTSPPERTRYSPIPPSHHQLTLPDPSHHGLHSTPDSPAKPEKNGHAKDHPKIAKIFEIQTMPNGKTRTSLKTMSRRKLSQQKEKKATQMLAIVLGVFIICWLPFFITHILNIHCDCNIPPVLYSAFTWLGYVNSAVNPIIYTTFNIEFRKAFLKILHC

[6] = target: T4, Alpha-1A adrenergic receptor (Homo sapiens, UniProt P35348); experiment: Binding affinity to alpha-1A adrenergic receptor (unknown origin); settings: read-out: pA2 (converted)
T4 sequence (P35348 whole entry): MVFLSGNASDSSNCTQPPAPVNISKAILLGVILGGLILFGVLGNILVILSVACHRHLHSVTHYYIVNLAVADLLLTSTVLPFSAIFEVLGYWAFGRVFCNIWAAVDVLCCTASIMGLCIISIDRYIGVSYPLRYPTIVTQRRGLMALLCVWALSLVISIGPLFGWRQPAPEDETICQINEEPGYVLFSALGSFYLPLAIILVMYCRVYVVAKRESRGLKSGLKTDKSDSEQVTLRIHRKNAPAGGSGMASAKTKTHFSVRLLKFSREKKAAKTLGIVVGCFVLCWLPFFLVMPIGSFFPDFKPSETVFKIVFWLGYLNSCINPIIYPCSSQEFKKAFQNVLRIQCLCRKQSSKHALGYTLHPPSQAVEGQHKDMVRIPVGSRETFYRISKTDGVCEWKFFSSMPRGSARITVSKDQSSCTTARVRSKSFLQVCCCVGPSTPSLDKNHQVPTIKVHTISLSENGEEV

[7] = target: T2, 5-hydroxytryptamine receptor 2A; experiment: Binding affinity to 5HT2A receptor (unknown origin)
D(2) dopamine receptor [8] = target: T3, D(2) dopamine receptor; experiment: Agonist activity at dopamine D2 receptor (unknown origin) expressed in CHOK1 cells coexpressing Galpha15 at 10 uM by FLIPR assay relative to control; assay type: cell-based; settings: CHO-K1
Mus musculus [9] = experiment: Toxicity in po dosed mouse assessed as induction of catalepsy; assay type: organism-based; settings: in vivo
D(2) dopamine receptor [10] = target: T3, D(2) dopamine receptor; remark: listed apart in the source
D(2) dopamine receptor [11] = target: T3, D(2) dopamine receptor; experiment: Antagonist activity at dopamine D2 receptor (unknown origin) expressed in CHOK1 cells coexpressing Galpha15 assessed as inhibition of agonist-induced response at 10 uM incubated for 60 mins in incubator followed by 15 mins at room temperature by FLIPR assay relative to control; assay type: cell-based; settings: CHO-K1
Mus musculus [12] = organism: Mus musculus; experiment: animal or person; settings: po
Mus musculus [13] = organism: Mus musculus; experiment: animal or person; settings: po; remark: listed apart in the source
Description: Antipsychotic activity in po dosed mouse assessed as reduction in apomorphine-induced climbing behavior administered for 30 mins prior to apomorphine-challenge measured at 10 to 30 mins post-dose

in vivo [14] = settings: mouse, po
in vivo [15] = settings: mouse, po; remark: listed apart in the source
Description: Therapeutic Index, ratio of ED50 for catalepsy in mouse to ED50 for antipsychotic activity in po dosed mouse assessed as reduction in apomorphine-induced climbing behavior

[16] = target: T2, 5-hydroxytryptamine receptor 2A; experiment: Antagonist activity at 5HT2A receptor (unknown origin) expressed in CHOK1 cells coexpressing Galpha15 assessed as inhibition of agonist-induced response at 10 uM incubated for 60 mins in incubator followed by 15 mins at room temperature by FLIPR assay relative to control; assay type: cell-based; settings: CHO-K1
D(3) dopamine receptor = D(3) dopamine receptor (Homo sapiens, UniProt P35462); experiment: Binding affinity to dopamine D3 receptor (unknown origin)
Chain of D(3) dopamine receptor (P35462 whole entry): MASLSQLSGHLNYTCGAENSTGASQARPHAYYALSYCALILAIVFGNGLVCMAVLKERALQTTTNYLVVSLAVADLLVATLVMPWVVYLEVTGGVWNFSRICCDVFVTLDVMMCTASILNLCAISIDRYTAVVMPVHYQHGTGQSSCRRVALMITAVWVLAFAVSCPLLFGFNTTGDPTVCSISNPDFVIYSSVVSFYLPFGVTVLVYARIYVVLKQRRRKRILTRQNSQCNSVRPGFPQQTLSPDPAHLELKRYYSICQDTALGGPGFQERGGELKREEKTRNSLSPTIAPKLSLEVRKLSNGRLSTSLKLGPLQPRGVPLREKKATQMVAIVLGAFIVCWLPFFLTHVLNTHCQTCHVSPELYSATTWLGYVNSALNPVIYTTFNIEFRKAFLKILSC

[17] = target: T5, 5-hydroxytryptamine receptor 1A (Homo sapiens, UniProt P08908); experiment: Binding affinity to 5HT1A receptor (unknown origin)
T5 sequence (P08908 whole entry): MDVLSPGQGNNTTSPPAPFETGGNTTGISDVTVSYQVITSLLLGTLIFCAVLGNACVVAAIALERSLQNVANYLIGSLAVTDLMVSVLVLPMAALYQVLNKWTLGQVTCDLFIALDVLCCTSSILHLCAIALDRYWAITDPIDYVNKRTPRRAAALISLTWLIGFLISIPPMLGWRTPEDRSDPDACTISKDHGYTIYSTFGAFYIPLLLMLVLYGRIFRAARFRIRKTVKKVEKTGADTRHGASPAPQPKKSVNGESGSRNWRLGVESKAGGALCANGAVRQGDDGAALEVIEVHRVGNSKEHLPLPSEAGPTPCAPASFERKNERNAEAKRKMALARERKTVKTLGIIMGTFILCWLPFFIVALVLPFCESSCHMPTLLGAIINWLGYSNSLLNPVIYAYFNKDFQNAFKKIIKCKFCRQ

Structure (SMILES)	Ki [1] [nM]	Ki [2] [nM]	Ki (D(2) dopamine receptor [3]) [nM]	further results
COc1ccccc1N1CCN(CCCCOc2ccc3ccc(=O)oc3c2)CC1	876	1680	569	–
NCCc1c[nH]c2ccc(O)cc12	–	–	–	Activity [4]: 100%
O=C1CC(c2ccccc2)c2ccc(OCCCCN3CCC(c4noc5cc(F)ccc45)CC3)cc2O1 (stereo not drawn)	> 10000	559	515	–
Cc1cc(=O)oc2cc(OCCCCN3CCN(c4ccccn4)CC3)ccc12	102	897	2820	–
CC(C)c1cc(=O)oc2cc(OCCCCN3CCC(c4noc5cc(F)ccc45)CC3)ccc12	> 10000	> 10000	2350	–
COc1ccccc1N1CCN(CCCCOc2ccc3c(C)c(C)c(=O)oc3c2)CC1	> 10000	58.9	> 10000	–
COc1cccc(-c2cc(=O)oc3cc(OCCCCN4CCC(c5noc6cc(F)ccc56)CC4)ccc23)c1	> 10000	> 10000	787	–
COc1ccccc1N1CCN(CCCOc2ccc3c(C)cc(=O)oc3c2)CC1	–	–	–	Ki (D(2) dopamine receptor [5]): 11.7 nM; Kb [6]: 0.851 nM; Ki [7]: 174 nM
Cc1cc(=O)oc2cc(OCCCCN3CCC(c4noc5cc(F)ccc45)CC3)c(Cl)cc12	17.2	10.6	> 10000	–
O=c1cc(C2CC2)c2ccc(OCCCCN3CCC(c4noc5cc(F)ccc45)CC3)cc2o1	> 10000	> 10000	> 10000	–
Cc1c(C)c2ccc(OCCCCN3CCC(c4noc5cc(F)ccc45)CC3)c(C)c2oc1=O	3070	607	10.7	–
COc1ccccc1N1CCN(CCCCOc2ccc3c(C)cc(=O)oc3c2C)CC1	112	941	844	–
Cc1cc(=O)oc2cc(OCCCCN3CCC(C(=O)c4ccc(F)cc4)CC3)ccc12	165	257	182	–
Cc1cc(=O)oc2cc(OCCCCN3CCN(c4nsc5ccccc45)CC3)ccc12	113	104	176	–
Cc1cc(=O)oc2cc(OCCCN3CCC(c4noc5cc(F)ccc45)CC3)ccc12	328	140	116	–
NCCc1ccc(O)c(O)c1	–	–	–	Activity (D(2) dopamine receptor [8]): 101%
O=c1cc(-c2cccs2)c2ccc(OCCCCN3CCC(c4noc5cc(F)ccc45)CC3)cc2o1	> 10000	> 10000	2350	–
O=c1cc(-c2ccccc2)c2ccc(OCC(O)CN3CCC(c4noc5cc(F)ccc45)CC3)cc2o1 (stereo not drawn)	692	1570	987	–
COc1ccccc1N1CCN(CCCCOc2ccc3c(C(F)(F)F)cc(=O)oc3c2)CC1	41.8	810	> 10000	–
O=c1cc(CO)c2ccc(OCCCCN3CCC(c4noc5cc(F)ccc45)CC3)cc2o1	2160	> 10000	> 10000	–
CCCc1cc(=O)oc2cc(OCCCCN3CCC(c4noc5cc(F)ccc45)CC3)ccc12	410	30.8	3.9	–
COc1ccccc1N1CCN(CCCCOc2ccc3c(C)cc(=O)oc3c2Cl)CC1	151	588	119	–
O=c1ccc2ccc(OCCCCN3CCC(c4noc5cc(F)ccc45)CC3)cc2o1	553	1460	44.9	–

Structure (SMILES)	Ki [1] [nM]	Ki [2] [nM]	Ki (D(2) dopamine receptor [3]) [nM]	further results
Cc1cc(=O)oc2cc(OC/C=C/CN3CCC(c4noc5cc(F)ccc45)CC3)ccc12	44.5	0.5	17.1	–
COc1ccccc1N1CCN(CCCCOc2ccc3c(-c4ccccc4)cc(=O)oc3c2)CC1	> 10000	> 10000	> 10000	–
Cc1cc(=O)oc2cc(OCCCCN3CCN(c4cccc(Cl)c4Cl)CC3)ccc12	11.5	101	1870	–
CN1CCN(C2=Nc3cc(Cl)ccc3Nc3ccccc32)CC1 [CLOZAPINE]	–	–	–	ED50 (Mus musculus [9]): 92.73 mg/kg
Cc1cc(=O)oc2cc(OCCCCCN3CCC(c4noc5cc(F)ccc45)CC3)ccc12	1720	306	123	–
Cc1cccc(N2CCN(CCCCOc3ccc4c(C)cc(=O)oc4c3)CC2)c1C	48.4	259	1390	–
OCCN1CCN(CCCN2c3ccccc3Sc3ccc(Cl)cc32)CC1 [PERPHENAZINE]	–	–	–	IC50 (D(2) dopamine receptor [10]): 0.3 nM; inhibition (D(2) dopamine receptor [11]): 100%
COc1ccccc1N1CCN(CCCCOc2ccc3c(CO)cc(=O)oc3c2)CC1	> 10000	> 10000	> 10000	–
Cc1cc(=O)oc2cc(OCCCCN3CCN(c4cccc(C(F)(F)F)c4)CC3)ccc12	15.6	157	143	–
O=C(CCCN1CCC(O)(c2ccc(Cl)cc2)CC1)c1ccc(F)cc1 [HALOPERIDOL]	–	–	–	ED50 (Mus musculus [9]): 0.22 mg/kg; ED50 (Mus musculus [12]): 0.19 mg/kg; ED50 (Mus musculus [13]): 0.09 mg/kg; selectivity ratio (in vivo [14]): 1.16; selectivity ratio (in vivo [15]): 2.44
COc1ccc(N2CCN(CCCCOc3ccc4c(C)cc(=O)oc4c3)CC2)cc1	530	1010	412	–
Cc1cc(=O)oc2cc(OCC(O)CN3CCC(c4noc5cc(F)ccc45)CC3)ccc12 (stereo not drawn)	517	453	> 10000	–
CCc1cc(=O)oc2cc(OCCCCN3CCC(c4noc5cc(F)ccc45)CC3)ccc12	1470	51.3	1930	–
Cc1ccc(S(=O)(=O)N2CCN(CCCCOc3ccc4c(C)cc(=O)oc4c3)CC2)cc1	1200	> 10000	1590	–
Cc1cc(OCCCCN2CCC(c3noc4cc(F)ccc34)CC2)cc2oc(=O)cc(C)c12	18.9	549	459	–
Cc1cc(=O)oc2cc(OCCCCN3CCC(c4nc5ccccc5o4)CC3)ccc12	1390	1550	> 10000	–
COc1cccc(N2CCN(CCCCOc3ccc4c(C)cc(=O)oc4c3)CC2)c1	89.2	469	156	–
O=c1cc(-c2ccc(F)cc2)c2ccc(OCCCCN3CCC(c4noc5cc(F)ccc45)CC3)cc2o1	> 10000	> 10000	632	–
O=C(c1ccc(F)cc1)C1CCN(CCn2c(=O)[nH]c3ccccc3c2=O)CC1	–	–	–	inhibition [16]: 99.9%
Cc1cc(=O)oc2cc(OCCCCN3CCC(c4nc5ccccc5s4)CC3)ccc12	146	215	242	–
O=c1cc(C(F)(F)F)c2ccc(OCCCCN3CCC(c4noc5cc(F)ccc45)CC3)cc2o1	42.9	228	3010	–
Cc1cc(=O)oc2cc(OCCCN3CCN(c4ccccc4)CC3)ccc12	–	–	–	Ki (D(2) dopamine receptor [5]): 10.8 nM; Ki (D(3) dopamine receptor): 18.9 nM; Ki [17]: 0.79 nM

— ChEMBL document CHEMBL2385071, “Synthesis and biological investigation of coumarin piperazine (piperidine) derivatives as potential multireceptor atypical antipsychotics” (J Med Chem, 2013)
